The results in this text go back to US20140228366A1, “HETEROARYL-SUBSTITUTED PYRAZOLOPYRIDINES AND USE THEREOF AS SOLUBLE GUANYLATE CYCLASE STIMULATORS” (BAYER INTELLECTUAL PROPERTY GMBH, priority 2011, published 2014).

The subject of one data set is rabbit aorta rings. Briefly: Vasorelaxant effect in vitro (phenylephrine-contracted aorta rings). The settings on record: Oryctolagus cuniculus, phenylephrine contraction, concentration reducing control contraction by 50%. The method, then: Rabbits are stunned by a blow to the neck and exsanguinated. The aorta is removed, freed from adhering tissue and divided into rings of a width of 1.5 mm. The rings are placed individually under an initial tension in 5 ml organ baths with Krebs-Henseleit solution which is at 37° C., is gassed with carbogen and has the following composition (in each case mM): sodium chloride: 119; potassium chloride: 4.8; calcium chloride dihydrate: 1; magnesium sulphate heptahydrate: 1.4; potassium dihydrogenphosphate: 1.2; sodium bicarbonate: 25; glucose: 10. The contractile force is determined with Statham UC2 cells, amplified and digitalized using A/D transducers (DAS-1802 HC, Keithley Instruments Munich), and recorded in parallel on linear recorders. To produce a contraction, phenylephrine is added to the bath cumulatively in increasing concentration. After several control cycles, the substance to be investigated is added in each further run in increasing dosage in each case, and the height of the contraction achieved is compared with the height of the contraction reached in the last preceding run. This is used to calculate the concentration needed to reduce the magnitude of the control value by 50% (IC50 value). The standard administration volume is 5 μl; the DMSO content in the bath solution corresponds to 0.1%.

Data set [1] addresses T1, recombinant guanylate cyclase reporter cell line (Rattus norvegicus, UniProt P19686+P20595).
T1 construct: expressed in transfected cells; host or cells: recombinant reporter cell line
T1 sequence (P19686 1-690): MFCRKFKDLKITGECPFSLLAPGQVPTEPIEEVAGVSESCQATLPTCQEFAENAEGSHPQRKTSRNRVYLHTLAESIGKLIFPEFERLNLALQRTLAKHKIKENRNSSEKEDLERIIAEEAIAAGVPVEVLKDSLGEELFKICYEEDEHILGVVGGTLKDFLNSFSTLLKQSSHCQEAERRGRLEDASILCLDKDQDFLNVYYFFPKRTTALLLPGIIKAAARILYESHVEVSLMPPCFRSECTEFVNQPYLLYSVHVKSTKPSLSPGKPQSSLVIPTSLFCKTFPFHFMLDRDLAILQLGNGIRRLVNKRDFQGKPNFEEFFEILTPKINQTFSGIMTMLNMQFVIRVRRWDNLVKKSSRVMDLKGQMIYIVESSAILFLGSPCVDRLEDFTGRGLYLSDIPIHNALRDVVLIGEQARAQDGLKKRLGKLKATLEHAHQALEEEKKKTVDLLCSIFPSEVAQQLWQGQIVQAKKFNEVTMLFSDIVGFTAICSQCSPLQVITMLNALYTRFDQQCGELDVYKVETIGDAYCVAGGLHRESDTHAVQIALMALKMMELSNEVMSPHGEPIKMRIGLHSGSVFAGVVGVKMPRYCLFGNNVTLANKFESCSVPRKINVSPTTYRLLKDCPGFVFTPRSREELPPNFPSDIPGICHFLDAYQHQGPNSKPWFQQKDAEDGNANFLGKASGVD
T1 sequence (P20595 1-619): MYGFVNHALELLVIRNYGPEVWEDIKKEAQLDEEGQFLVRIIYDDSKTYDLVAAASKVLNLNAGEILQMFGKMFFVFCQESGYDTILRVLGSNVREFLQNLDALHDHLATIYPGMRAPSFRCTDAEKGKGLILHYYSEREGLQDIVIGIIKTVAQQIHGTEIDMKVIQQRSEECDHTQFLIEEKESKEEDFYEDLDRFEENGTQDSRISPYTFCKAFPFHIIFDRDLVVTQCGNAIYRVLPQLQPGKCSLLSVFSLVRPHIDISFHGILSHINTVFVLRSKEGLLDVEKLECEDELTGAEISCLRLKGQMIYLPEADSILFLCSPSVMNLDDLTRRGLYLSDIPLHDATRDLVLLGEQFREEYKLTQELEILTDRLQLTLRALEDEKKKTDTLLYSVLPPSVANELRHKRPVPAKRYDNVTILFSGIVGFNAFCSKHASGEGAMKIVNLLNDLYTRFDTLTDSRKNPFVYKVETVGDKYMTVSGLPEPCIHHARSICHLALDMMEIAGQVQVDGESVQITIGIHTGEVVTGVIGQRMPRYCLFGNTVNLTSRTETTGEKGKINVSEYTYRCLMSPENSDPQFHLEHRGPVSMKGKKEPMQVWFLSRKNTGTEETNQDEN
As to the kind of experiment: Effect on a recombinant guanylate cyclase reporter cell line. It is filed as cell-based. The method, then:
The cellular activity of the compounds according to the invention is determined using a recombinant guanylate cyclase reporter cell line, as described in F. Wunder et al., Anal. Biochem. 339, 104-112 (2005).

The nature of data set [2]: Pharmacokinetic parameters following intravenous administration in rats. The format is in vivo, male Wistar rats. The settings on record: intravenous administration of 0.3 mg/kg; for MRT / half-life: male, Wistar, rat, plasma; for half-life: terminal half life. The method, then: The pharmacokinetic parameters of the compounds of the formula (I) according to the invention are determined in male CD-1 mice, male Wistar rats and/or female beagles. The administration volume is 5 ml/kg for mice, 5 ml/kg for rats and 0.5 ml/kg for dogs. Intravenous administration is via a formulation of species-specific plasma/DMSO (99/1) in the case of mice and rats and via water/PEG400/ethanol (50/40/10 or 30/60/10) in the case of dogs. The removal of blood from rats is simplified by inserting a silicone catheter into the right Vena jugularis externa prior to substance administration. The surgical intervention takes place one day prior to the experiment with isofluran anesthesia and administration of an analgetic (atropine/rimadyl (3/1) 0.1 ml s.c.). Substance administration is as i.v. bolus in the case of mice, as i.v. bolus or via a 15-minute infusion in the case of rats and via a 15-minute infusion in the case of dogs. Removal of blood is after 0.033, 0.083, 0.17, 0.5, 1, 2, 3, 4, 6, 7 and 24 hours in the case of mice and, after a 15-minute infusion, after 0.083, 0.25, 0.28, 0.33, 0.42, 0.75, 1, 2, 3, 4, 6, 7 (or 8 in the case of Example 3) and 24 hours in the case of dogs and rats and after an i.v. bolus administration, after 0.033, 0.083, 0.17, 0.5, 1, 2, 3, 4, 6, 7 and 24 hours in the case of rats. For all species, oral administration of the dissolved substance via gavage is carried out based on a water/PEG400/ethanol formulation (50/40/10). Here, the removal of blood from rats and dogs is after 0.083, 0.17, 0.5, 0.75, 1, 2, 3, 4, 6, 7 and 24 hours. The blood is removed into heparinized tubes. The blood plasma is then obtained by centrifugation; if required, it can be stored at −20° C. until further processing.
An internal standard (ZK 228859) is added to the samples of the compounds of the formula (I) according to the invention, calibration samples and QCs, and the protein is precipitated using excess acetonitrile. After addition of an ammonium acetate buffer (0.01 M, pH 6.8) and subsequent vortexing, the mixture is centrifuged at 1000 g and the supernatant is examined by LC-MS/MS (API 4000, AB Sciex). Chromatographic separation is carried out on an Agilent 1100-HPLC. The injection volume is 10 μl. The separation column used is a Phenomenex Luna 5μ C8(2) 100A 50×2 mm, adjusted to a temperature of 40° C. A binary mobile phase gradient at 500 μl/min is used (A: 0.01M ammonium acetate buffer pH 6.8, B: 0.1% formic acid in acetonitrile): 0 min (90% A), 1 min (90% A), 3 min (10% A), 4 min (10% A), 4.50 min (90% A), 6 min (90% A). The temperature of the Turbo V ion source is 500° C. (Example 2), 400° C. (Example 3) or 450° C. (Example 6). The following MS instrument parameters are used: curtain gas 15 units (Examples 2 and 3) or 10 units (Example 6), ion spray voltage 4.8 kV, gas 1 45 units (Example 2) or 50 units (Examples 3 and 6), gas 2 35 units (Examples 2 and 6) or 40 units (Example 3), CAD gas 4 units (Examples 2 and 6) or 8 units (Example 3). The substances are quantified by peak heights or areas using extracted ion chromatograms of specific MRM experiments.
The plasma concentration/time plots determined are used to calculate the pharmacokinetic parameters such as AUC, Cmax, t112 (terminal half life), MRT (mean residence time) and CL (clearance), using the validated pharmacokinetic calculation program KinEx (Vers. 3).
Since the substance quantification is performed in plasma, it is necessary to determine the blood/plasma distribution of the substance in order to be able to adjust the pharmacokinetic parameters correspondingly. For this purpose, a defined amount of substance is incubated in heparinized whole blood of the species in question in a rocking roller mixer for 20 min. After centrifugation at 1000 g, the plasma concentration is measured (see above) and determined by calculating the quotient of the Cblood/Cplasma values.

Turning to `CC1(C)C(=O)Nc2nc(-c3nn(Cc4ncccc4F)c4ncc(F)cc34)ncc21` [Example 6, 2-{5-Fluoro-1-[(3-fluoropyridin-2-yl)methyl]-1H-pyrazolo[3,4-b]pyridin-3-yl}-5,5-dimethyl-5,7-dihydro-6H-pyrrolo[2,3-d]pyrimidin-6-one], in the data set on rabbit aorta rings, the IC50 is 82 nM. Moreover, in data set [1], the “MEC (minimum effective concentration)” value worked out at 0.03 µM. Besides, in data set [2], the AUCnorm turned out to be 3.5 kg·h/L, the CLblood stood at 0.37 L/h/kg, the mean residence time (MRT) was 5.6 h and the half-life is 264 min.

Regarding `CC1(C)C(=O)Nc2nc(-c3nn(Cc4ncccc4F)c4ncc(F)cc34)nc(N)c21` [Example 3, 4-Amino-2-{5-fluoro-1-[(3-fluoropyridin-2-yl)methyl]-1H-pyrazolo[3,4-b]pyridin-3-yl}-5,5-dimethyl-5,7-dihydro-6H-pyrrolo[2,3-d]pyrimidin-6-one], inhibition in the data set on rabbit aorta rings was half-maximal at 34 nM (IC50). Further, in data set [1], the “MEC (minimum effective concentration)” value is 0.3 µM. Also, in data set [2], the AUCnorm was determined as 0.93 kg·h/L, the CLblood was 0.93 L/h/kg, the mean residence time (MRT) worked out at 1.3 h and the half-life was 60 min.

`CC1(C)C(=O)Nc2nc(-c3nn(Cc4ncccc4F)c4ncc(F)cc34)nnc21` [Example 2, 3-{5-Fluoro-1-[(3-fluoropyridin-2-yl)methyl]-1H-pyrazolo[3,4-b]pyridin-3-yl}-7,7-dimethyl-5,7-dihydro-6H-pyrrolo[2,3-e][1,2,4]triazin-6-one]: in the data set on rabbit aorta rings, the IC50 was determined as 234 nM. Further, in data set [1], the “MEC (minimum effective concentration)” value worked out at 1 µM. For the same compound, in data set [2], the AUCnorm was 13 kg·h/L, the CLblood worked out at 0.13 L/h/kg, the MRT is 7.9 h and the half-life is 366 min.

What is called IC50 is the concentration that gives 50% inhibition. Low readings indicate higher potency, high ones lower potency. By MRT is commonly meant a mean duration of stay, worked out from the concentration-time curve. Usually half-life stands for the time in which the quantity being followed falls by half. Low values mean fast loss, high ones slow loss.
